Each block holds one compound with its values, some of them ahead of it.
Columns and labels:
Assay in all cases: competitive isoTOP-ABPP
Format in all cases: binding
ADK Adenosine kinase = target: T1, ADK Adenosine kinase (Homo sapiens, UniProt P55263); parameters: key to isoTOP-ABPP reactivity ratio at lysine P55263_K88: R = MS1 peak area ratio, DMSO (heavy) / compound-treated (light); settings: for isoTOP-ABPP reactivity ratio at lysine P55263_K88 / isoTOP-ABPP ratio (R) at liganded lysine P55263_K88: 50 uM, in vitro; for isoTOP-ABPP reactivity ratio at lysine P55263_K88: 231 sol; for isoTOP-ABPP ratio (R) at liganded lysine P55263_K88: sol, 231
T1 construct: isoTOP-ABPP experiments performed in cell lysates (in vitro); endogenous in cells; host or cells: soluble proteome of human cancer cell lines (MDA-MB-231, Ramos, Jurkat)
T1 sequence (P55263 whole entry): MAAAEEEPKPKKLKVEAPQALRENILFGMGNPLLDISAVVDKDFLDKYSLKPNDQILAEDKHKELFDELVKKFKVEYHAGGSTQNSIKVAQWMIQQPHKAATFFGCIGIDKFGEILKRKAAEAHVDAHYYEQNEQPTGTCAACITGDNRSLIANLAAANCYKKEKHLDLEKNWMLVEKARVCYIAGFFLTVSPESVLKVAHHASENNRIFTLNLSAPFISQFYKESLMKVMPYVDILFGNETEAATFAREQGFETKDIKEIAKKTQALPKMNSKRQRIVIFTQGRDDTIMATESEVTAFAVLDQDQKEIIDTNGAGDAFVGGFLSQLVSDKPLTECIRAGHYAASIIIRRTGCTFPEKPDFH
Method: (§1) In vitro covalent fragment treatment for isoTOP-ABPP. All compounds were made up as solutions in DMSO (100×) and were used at a final concentration of 50 μM for activated esters and 100 μM for guanidinylating agents. For each profiling sample, 0.5 ml of lysate was treated with 5 μl of the 100× compound stock solution or 5 μl of DMSO. Samples were treated with activated esters for
(§2) STP-alkyne labeling and click chemistry. For concentration-dependent reactivity measurements by isoTOP-ABPP, 0.5 ml proteome aliquots were treated at ambient temperature with 1 mM STP-alkyne 1 (5 μl of 100 mM stock in DMSO) and 0.1 mM STP alkyne 1 (5 μl of 10 mM stock in DMSO), respectively. For competitive isoTOP-ABPP, after in vitro fragment treatment (detailed above), the samples were labeled for 1 h at ambient temperature with 0.1 mM STP-alkyne 1 (5 μl of 10 mM stock in DMSO). Samples were conjugated by copper-mediated azide-alkyne cycloaddition (CuAAC) to either the light (1 mM STP-alkyne or fragment treated) or heavy (0.1 mM STP-alkyne or DMSO treated) TEV tags (10 μl of 5 mM stocks in DMSO, final concentration=100 μM) using tris(2-carboxyethyl)phosphine hydrochloride
(§3) R value calculation and processing. The ratios of light and heavy MS1 peaks for each unique peptide were quantified with a CIMAGE software using default parameters (3 MS1 acquisitions per peak and signal to noise threshold set to 2.5). For reactivity measurements by isoTOP-ABPP, the R value was calculated from the ratio of MS1 peak areas, comparing the 1 mM STP alkyne sample (light TEV tag) with the 0.1 mM STP alkyne sample (heavy TEV tag). For competitive isoTOP-ABPP, the R value was calculated from the ratio of MS1 peak areas, comparing the DMSO treated sample (heavy TEV tag) with the compound treated sample (light TEV tag). […] Ratios for unique peptide entries are calculated for each experiment; overlapping peptides with the same modified lysine (for example, different charge states, MudPIT chromatographic steps or tryptic termini) are grouped together and the median ratio is reported as the final ratio (R). The peptide ratios reported by CIMAGE were further filtered to ensure the removal or correction of low-quality ratios in each individual data set. The quality filters applied were the following: removal of half tryptic peptides; for ratios with high standard deviations from the median (90% of the median or above) the lowest ratio was taken instead of the median; removal of peptides with R=20 and only a single MS2 event triggered during the elution of the parent ion; manual annotation of all the peptides with ratios of 20, removing any peptides with low quality elution profiles that remained after the previous curation steps (only done for competitive isoTOP-ABPP).
(§4) Cross-data processing for fragment screening. For compound treated samples, biological replicates of the same condition were averaged, if the standard deviation was below 60% of the mean; otherwise, for lysines with at least one R value <4 for a particular compound, the lowest value of the ratio set was taken. For lysines, where all R values for a particular compound were ≥4, the average was reported. For peptides containing several possible modified lysines, the lysine with the highest number of quantification events was used for analysis and the remaining, redundant peptides were reported as alternative modification sites. Peptides included in the aggregate dataset (those used for further bioinformatics and statistical analyses) were required to have been quantified in 2 experiments for competitive isoTOP-ABPP. Lysines were categorized as liganded, if they had at least one ratio R≥4 (hit fragments). For liganded lysines with R=20 for all liganding events, lysines were required to have been quantified with R=20 in two separate experiments and were further required to have been quantified with R<20 in one additional experiment.

[1] = target: T2, ISOC2 Isochorismatase domain-containing protein 2, mitochondrial (Homo sapiens, UniProt Q96AB3); parameters: key to isoTOP-ABPP reactivity ratio at lysine Q96AB3_K178: R = MS1 peak area ratio, DMSO (heavy) / compound-treated (light); capped at 20; settings: for isoTOP-ABPP ratio (R) at liganded lysine Q96AB3_K178: sol, 231
T2 construct: isoTOP-ABPP experiments performed in cell lysates (in vitro); endogenous in cells; host or cells: soluble proteome of human cancer cell lines (MDA-MB-231; Ramos and Jurkat also prepared)
T2 sequence (Q96AB3 1-205): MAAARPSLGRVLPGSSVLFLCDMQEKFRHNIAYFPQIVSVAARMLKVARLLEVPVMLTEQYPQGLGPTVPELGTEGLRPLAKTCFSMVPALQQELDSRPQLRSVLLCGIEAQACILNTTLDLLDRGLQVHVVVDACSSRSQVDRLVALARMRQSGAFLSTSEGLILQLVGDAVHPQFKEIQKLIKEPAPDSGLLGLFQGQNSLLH
Method: as §1, §2, §3, §4

[2] = target: T3, PFKP 6-phosphofructokinase type C (Homo sapiens, UniProt Q01813); parameters: key to isoTOP-ABPP reactivity ratio at lysine Q01813_K688: R = MS1 peak area ratio, DMSO (heavy) / compound-treated (light); settings: for isoTOP-ABPP reactivity ratio at lysine Q01813_K688 / isoTOP-ABPP ratio (R) at liganded lysine Q01813_K688: 50 uM, in vitro; for isoTOP-ABPP reactivity ratio at lysine Q01813_K688: 231 sol; for isoTOP-ABPP ratio (R) at liganded lysine Q01813_K688: sol, 231
T3 construct: isoTOP-ABPP experiments performed in cell lysates (in vitro); endogenous in cells
T3 sequence (Q01813 1-784): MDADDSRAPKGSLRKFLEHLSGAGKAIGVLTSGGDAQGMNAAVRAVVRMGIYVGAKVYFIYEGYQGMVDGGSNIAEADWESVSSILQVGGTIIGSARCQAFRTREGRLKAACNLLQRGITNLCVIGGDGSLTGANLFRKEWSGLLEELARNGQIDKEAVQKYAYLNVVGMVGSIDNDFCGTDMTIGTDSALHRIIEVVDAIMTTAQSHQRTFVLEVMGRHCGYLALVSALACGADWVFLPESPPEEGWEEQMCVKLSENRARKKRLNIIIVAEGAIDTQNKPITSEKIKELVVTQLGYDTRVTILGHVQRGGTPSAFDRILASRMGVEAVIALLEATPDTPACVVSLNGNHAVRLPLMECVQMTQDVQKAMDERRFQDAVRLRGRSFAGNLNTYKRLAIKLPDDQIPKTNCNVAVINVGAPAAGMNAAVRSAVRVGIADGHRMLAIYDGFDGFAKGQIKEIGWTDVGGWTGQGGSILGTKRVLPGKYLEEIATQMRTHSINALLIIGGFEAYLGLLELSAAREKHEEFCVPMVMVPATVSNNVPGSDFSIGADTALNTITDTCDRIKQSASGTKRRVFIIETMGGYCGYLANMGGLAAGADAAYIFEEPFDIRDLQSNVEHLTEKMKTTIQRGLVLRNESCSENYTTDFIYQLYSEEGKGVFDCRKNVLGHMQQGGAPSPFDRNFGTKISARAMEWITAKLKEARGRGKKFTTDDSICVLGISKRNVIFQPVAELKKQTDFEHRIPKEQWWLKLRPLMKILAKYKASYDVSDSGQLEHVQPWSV
Method: as §1, §2, §3, §4

[3] = target: T4, NLN Neurolysin, mitochondrial (Homo sapiens, UniProt Q9BYT8); settings: 50 uM, 231 sol, in vitro
T4 construct: isoTOP-ABPP experiments performed in cell lysates (in vitro); endogenous in cells; host or cells: soluble proteome of human cancer cell lines (MDA-MB-231; Ramos and Jurkat also prepared)
T4 sequence (Q9BYT8 38-704): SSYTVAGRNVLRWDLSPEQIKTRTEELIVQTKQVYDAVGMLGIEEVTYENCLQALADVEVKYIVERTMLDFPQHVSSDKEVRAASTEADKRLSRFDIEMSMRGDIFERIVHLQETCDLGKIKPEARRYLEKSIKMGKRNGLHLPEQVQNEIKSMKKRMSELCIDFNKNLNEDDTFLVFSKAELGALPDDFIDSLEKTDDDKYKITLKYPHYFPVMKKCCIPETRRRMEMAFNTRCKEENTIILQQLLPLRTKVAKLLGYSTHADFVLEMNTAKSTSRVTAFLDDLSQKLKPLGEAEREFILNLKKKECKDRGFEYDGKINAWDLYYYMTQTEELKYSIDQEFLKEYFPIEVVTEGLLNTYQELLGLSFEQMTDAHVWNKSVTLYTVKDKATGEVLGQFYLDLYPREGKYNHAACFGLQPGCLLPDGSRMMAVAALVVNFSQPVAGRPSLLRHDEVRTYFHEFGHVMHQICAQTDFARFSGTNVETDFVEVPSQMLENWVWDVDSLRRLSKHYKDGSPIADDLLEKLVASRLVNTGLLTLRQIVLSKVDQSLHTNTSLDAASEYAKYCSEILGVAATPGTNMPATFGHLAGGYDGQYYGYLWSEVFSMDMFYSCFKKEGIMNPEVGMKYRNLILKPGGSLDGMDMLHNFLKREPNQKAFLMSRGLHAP
Outline: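 Here, isoTOP-ABPP measures loss of STP-alkyne labeling at individual lysines after fragment exposure in lysate. Activated esters are dosed at 50 μM, guanidinylating agents at 100 μM; the probe follows at 0.1 mM for 1 h. R ≥4 marks a liganded lysine.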

Structure (SMILES): N#Cc1ccc(C(=O)Oc2ccc([N+](=O)[O-])cc2[N+](=O)[O-])cc1 [fragment 44, 2,4-Dinitrophenyl 4-cyanobenzoate]
isoTOP-ABPP ratio, lysine P55263_K88 (ADK Adenosine kinase; 50 uM_231_sol_in vitro): 0.5 | isoTOP-ABPP ratio, lysine Q96AB3_K178 ([1]; 50 uM_231_sol_in vitro): 1.3 | isoTOP-ABPP ratio, lysine Q01813_K688 ([2]; 50 uM_231_sol_in vitro): 4.2

Structure (SMILES): O=C(Oc1ccc([N+](=O)[O-])cc1[N+](=O)[O-])C1CCN(C(=O)OCc2ccccc2)CC1 [fragment 34, 1-Benzyl 4-(2,4-dinitrophenyl) piperidine-1,4-dicarboxylate]
isoTOP-ABPP ratio (R) at liganded lysine P55263_K88 (ADK Adenosine kinase): 20.0 | isoTOP-ABPP ratio (R) at liganded lysine Q96AB3_K178 ([1]; 50 uM, in vitro): 1.1 | isoTOP-ABPP ratio (R) at liganded lysine Q01813_K688 [2]: 1.9

Structure (SMILES): O=C(CCc1coc2cc(F)ccc2c1=O)Oc1ccc([N+](=O)[O-])cc1[N+](=O)[O-] [fragment 36, 2,4-Dinitrophenyl 3-(7-fluoro-4-oxo-4H-chromen-3-yl)propanoate]
isoTOP-ABPP ratio (R) at liganded lysine P55263_K88 (ADK Adenosine kinase): 20.0 | isoTOP-ABPP ratio (R) at liganded lysine Q96AB3_K178 ([1]; 50 uM, in vitro): 1.7 | isoTOP-ABPP ratio (R) at liganded lysine Q01813_K688 [2]: 20.0

Structure (SMILES): CCn1cc(C(=O)Oc2c(F)c(F)c(F)c(F)c2F)c(=O)c2ccc(C)nc21 [fragment 28, Pentafluorophenyl 1-ethyl-7-methyl-4-oxo-1,4-dihydro-1,8-naphthyridine-3-carboxylate]
isoTOP-ABPP reactivity ratio at lysine P55263_K88 (ADK Adenosine kinase): 0.8 | isoTOP-ABPP reactivity ratio at lysine Q96AB3_K178 ([1]; 50 uM, 231 sol, in vitro): 1.8 | isoTOP-ABPP reactivity ratio at lysine Q01813_K688 [2]: 1.3

The remaining lines, values ahead:

isoTOP-ABPP reactivity ratio at lysine Q9BYT8_K253 [3]: 1.2 | isoTOP-ABPP reactivity ratio at lysine P55263_K88 (ADK Adenosine kinase): 0.9 | isoTOP-ABPP reactivity ratio at lysine Q01813_K688 [2]: 6.4
Structure (SMILES): O=C(CCc1coc2cc(F)ccc2c1=O)Oc1c(F)c(F)c(F)c(F)c1F [fragment 26, Pentafluorophenyl 3-(7-fluoro-4-oxo-4H-chromen-3-yl)propanoate]

isoTOP-ABPP ratio, lysine P55263_K88 (ADK Adenosine kinase; 50 uM_231_sol_in vitro): 0.8 | isoTOP-ABPP ratio, lysine Q96AB3_K178 ([1]; 50 uM_231_sol_in vitro): 1.2 | isoTOP-ABPP ratio, lysine Q01813_K688 ([2]; 50 uM_231_sol_in vitro): 1.0
Structure (SMILES): O=C(Oc1c(F)c(F)c(C(F)(F)F)c(F)c1F)c1cc(C(F)(F)F)cc(C(F)(F)F)c1 [fragment 47, 2,3,5,6-Tetrafluoro-4-(trifluoromethyl)phenyl 3,5-bis(trifluoromethyl)benzoate]

isoTOP-ABPP ratio, lysine P55263_K88 (ADK Adenosine kinase; 100 uM_231_sol_in vitro): 1.2 | isoTOP-ABPP ratio, lysine Q96AB3_K178 ([1]; 100 uM_231_sol_in vitro): 1.1 | isoTOP-ABPP ratio, lysine Q01813_K688 ([2]; 100 uM_231_sol_in vitro): 9.6
Structure (SMILES): COC(=O)NC(=NC(=O)OCC1c2ccccc2-c2ccccc21)n1cccn1 [fragment 49, N-Methoxycarbonyl-N′-9-fluorenylmethoxycarbonyl-pyrazole-1-carboxamidine]

isoTOP-ABPP ratio, lysine P55263_K88 (ADK Adenosine kinase; 50 uM_231_sol_in vitro): 0.9 | isoTOP-ABPP ratio, lysine Q96AB3_K178 ([1]; 50 uM_231_sol_in vitro): 0.9 | isoTOP-ABPP ratio, lysine Q01813_K688 ([2]; 50 uM_231_sol_in vitro): 1.4
Structure (SMILES): O=C(Oc1c(F)c(F)cc(F)c1F)c1cc(C(F)(F)F)cc(C(F)(F)F)c1 [fragment 48, 2,3,5,6-Tetrafluorophenyl 3,5-bis(trifluoromethyl)benzoate]
